Measured values: patent US10660877B2 (BRISTOL-MYERS SQUIBB COMPANY, priority 2016, dated 2020)
Where two headings read alike, the source gives them in different places.

What was measured:
human TLR7 = human TLR7 (Homo sapiens (Human), UniProt Q9NYK1); assay: TLR7 inhibition reporter assay (HEK-Blue cells, SEAP reporter, gardiquimod stimulation); format: cell-based
human TLR8 = human TLR8 (Homo sapiens (Human), UniProt Q9NR97); assay: TLR8 inhibition reporter assay (HEK-Blue cells, SEAP reporter, R848 stimulation);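 further: compounds tested from 0.05 nM to 50 µM, 22 h at 37 °C, SEAP measured with HEK-Blue Detection, inhibition relative to agonist plus DMSO versus a known inhibitor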
human TLR9 = human TLR9 (Homo sapiens (Human), UniProt Q9NR96); assay: TLR9 inhibition reporter assay (HEK-Blue cells, SEAP reporter, ODN2006 stimulation);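 further: compounds tested over 0.05 nM to 50 µM, 22 h incubation, inhibition taken as SEAP signal drop from agonist plus DMSO wells toward a known inhibitor control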
[1] = HEK-Blue cells, gardiquimod 7.5 μM
[2] = read-out: TLR8 IC50, HEK-Blue cells, R848 15.9 μM
[3] = read-out: TLR9 IC50, HEK-Blue cells, ODN2006 5 nM
[4] = HEK-Blue cells overexpressing human TLR7, gardiquimod 7.5 μM
[5] = read-out: TLR8 IC50, HEK-Blue cells overexpressing human TLR8, R848 15.9 μM
[6] = read-out: TLR9 IC50, HEK-Blue cells overexpressing human TLR9, ODN2006 5 nM

Sequence of human TLR8 (Q9NR97 27-1041): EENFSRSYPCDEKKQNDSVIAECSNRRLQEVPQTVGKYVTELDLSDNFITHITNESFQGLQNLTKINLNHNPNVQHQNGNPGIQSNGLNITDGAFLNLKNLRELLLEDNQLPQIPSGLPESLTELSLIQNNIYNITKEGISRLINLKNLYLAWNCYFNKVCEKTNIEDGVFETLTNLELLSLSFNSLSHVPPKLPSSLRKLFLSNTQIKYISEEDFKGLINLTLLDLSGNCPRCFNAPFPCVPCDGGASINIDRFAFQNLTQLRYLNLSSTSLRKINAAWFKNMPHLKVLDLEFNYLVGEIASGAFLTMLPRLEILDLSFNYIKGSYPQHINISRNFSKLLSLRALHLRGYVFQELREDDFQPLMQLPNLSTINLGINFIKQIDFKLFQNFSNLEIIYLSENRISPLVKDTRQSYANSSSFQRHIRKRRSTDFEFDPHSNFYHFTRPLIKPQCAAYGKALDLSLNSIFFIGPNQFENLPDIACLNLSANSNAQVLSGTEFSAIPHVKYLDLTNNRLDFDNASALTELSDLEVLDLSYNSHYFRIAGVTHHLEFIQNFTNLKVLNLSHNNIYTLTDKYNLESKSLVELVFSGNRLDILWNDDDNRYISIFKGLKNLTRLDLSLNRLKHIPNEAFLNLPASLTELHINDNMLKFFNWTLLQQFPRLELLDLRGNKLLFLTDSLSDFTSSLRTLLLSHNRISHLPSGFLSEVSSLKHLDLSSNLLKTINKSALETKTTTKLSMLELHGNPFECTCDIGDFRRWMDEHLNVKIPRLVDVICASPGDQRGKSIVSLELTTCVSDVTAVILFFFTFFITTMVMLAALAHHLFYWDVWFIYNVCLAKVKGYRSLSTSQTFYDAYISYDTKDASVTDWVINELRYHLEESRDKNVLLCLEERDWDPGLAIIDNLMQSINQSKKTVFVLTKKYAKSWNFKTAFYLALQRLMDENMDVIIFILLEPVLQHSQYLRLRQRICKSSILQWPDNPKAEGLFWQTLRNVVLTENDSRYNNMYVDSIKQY
Sequence of human TLR9 (Q9NR96 26-1032): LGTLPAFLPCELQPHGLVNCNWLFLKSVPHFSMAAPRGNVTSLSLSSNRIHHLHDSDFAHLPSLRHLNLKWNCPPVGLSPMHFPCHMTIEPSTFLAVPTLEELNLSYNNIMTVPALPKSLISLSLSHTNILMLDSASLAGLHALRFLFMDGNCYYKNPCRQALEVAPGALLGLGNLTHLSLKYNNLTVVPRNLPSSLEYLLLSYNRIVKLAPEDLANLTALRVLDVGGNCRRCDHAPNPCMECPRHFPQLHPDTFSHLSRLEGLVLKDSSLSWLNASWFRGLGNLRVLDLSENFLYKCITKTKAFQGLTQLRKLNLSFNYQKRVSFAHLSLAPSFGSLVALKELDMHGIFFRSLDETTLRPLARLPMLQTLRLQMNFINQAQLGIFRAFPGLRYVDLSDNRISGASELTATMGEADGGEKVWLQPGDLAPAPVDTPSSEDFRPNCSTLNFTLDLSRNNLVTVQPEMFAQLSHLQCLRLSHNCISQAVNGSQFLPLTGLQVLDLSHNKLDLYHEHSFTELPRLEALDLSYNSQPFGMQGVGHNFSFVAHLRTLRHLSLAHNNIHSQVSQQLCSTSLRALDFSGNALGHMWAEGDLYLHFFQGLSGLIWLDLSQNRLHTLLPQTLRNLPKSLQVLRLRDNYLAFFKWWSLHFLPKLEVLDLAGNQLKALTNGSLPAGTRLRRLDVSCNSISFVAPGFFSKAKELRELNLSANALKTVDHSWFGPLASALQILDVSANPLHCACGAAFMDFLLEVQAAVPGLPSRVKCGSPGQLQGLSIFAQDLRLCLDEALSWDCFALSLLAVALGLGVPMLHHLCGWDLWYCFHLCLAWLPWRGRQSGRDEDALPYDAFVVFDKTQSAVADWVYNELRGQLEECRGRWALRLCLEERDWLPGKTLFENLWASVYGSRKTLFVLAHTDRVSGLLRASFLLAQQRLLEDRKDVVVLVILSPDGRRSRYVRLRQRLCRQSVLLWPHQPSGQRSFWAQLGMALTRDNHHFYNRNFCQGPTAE
Sequence of human TLR7 (Q9NYK1 27-1049): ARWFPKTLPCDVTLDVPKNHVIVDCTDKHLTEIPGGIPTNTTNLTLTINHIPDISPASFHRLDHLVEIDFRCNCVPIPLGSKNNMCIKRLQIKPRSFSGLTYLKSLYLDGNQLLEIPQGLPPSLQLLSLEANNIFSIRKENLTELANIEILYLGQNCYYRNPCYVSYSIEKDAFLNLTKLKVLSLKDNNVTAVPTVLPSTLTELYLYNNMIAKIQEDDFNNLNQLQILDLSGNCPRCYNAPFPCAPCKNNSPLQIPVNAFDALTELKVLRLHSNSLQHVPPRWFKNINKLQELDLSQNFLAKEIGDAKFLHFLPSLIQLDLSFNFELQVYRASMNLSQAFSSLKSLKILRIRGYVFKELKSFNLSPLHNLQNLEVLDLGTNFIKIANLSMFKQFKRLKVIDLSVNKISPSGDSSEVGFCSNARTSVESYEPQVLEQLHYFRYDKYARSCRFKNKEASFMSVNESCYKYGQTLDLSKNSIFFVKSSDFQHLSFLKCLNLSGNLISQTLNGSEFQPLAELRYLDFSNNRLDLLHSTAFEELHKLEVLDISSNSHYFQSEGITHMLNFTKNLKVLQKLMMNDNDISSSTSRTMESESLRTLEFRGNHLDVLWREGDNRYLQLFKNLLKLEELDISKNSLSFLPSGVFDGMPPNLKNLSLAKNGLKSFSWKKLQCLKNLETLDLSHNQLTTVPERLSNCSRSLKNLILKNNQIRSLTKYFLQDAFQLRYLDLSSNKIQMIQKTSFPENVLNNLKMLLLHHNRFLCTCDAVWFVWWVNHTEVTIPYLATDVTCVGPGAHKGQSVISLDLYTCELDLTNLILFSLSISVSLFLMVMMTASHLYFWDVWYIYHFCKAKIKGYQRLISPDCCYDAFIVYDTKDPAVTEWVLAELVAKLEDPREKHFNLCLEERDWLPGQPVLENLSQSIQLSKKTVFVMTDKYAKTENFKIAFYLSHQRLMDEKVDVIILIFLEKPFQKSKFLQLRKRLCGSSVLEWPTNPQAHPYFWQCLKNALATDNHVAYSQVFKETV

Row | SMILES | IC50 (human TLR7; [1]) [µM] | IC50 (human TLR8; [2]) [µM] | IC50 (human TLR9; [3]) [µM] | IC50 (human TLR7; [4]) [µM] | IC50 (human TLR8; [5]) [µM] | IC50 (human TLR9; [6]) [µM] | IC50 (human TLR8; TLR8 IC50, HEK-Blue cells overexpressing human TLR8, R848 15.9 μM) [µM] | IC50 (human TLR9; TLR9 IC50, HEK-Blue cells overexpressing human TLR9, ODN2006 5 nM) [µM]
1 | Cc1cc(-c2[nH]c3ccc(C4CCN(C(C)CF)CC4)cc3c2C(C)C)c(C)cn1 (stereo not drawn) [Example 870, 2-(2,5-dimethylpyridin-4-yl)-5-(1-(1-fluoropropan-2-yl)piperidin-4-yl)-3-isopropyl-1H-indole] | 0.0197 | 0.0041 | 1.44 |  |  |  |  | 
2 | Cc1cc(-c2[nH]c3cc(F)c(C4CCN(CC(=O)N(C)C)CC4)cc3c2C(C)C)cc(C)n1 [Example 837, 2-(4-(2-(2,6-dimethylpyridin-4-yl)-6-fluoro-3-isopropyl-1H-indol-5-yl)piperidin-1-yl)-N,N-dimethylacetamide] | 0.0019 | 0.0114 | 0.194 |  |  |  |  | 
3 | Cc1cc(-c2[nH]c3ccc(C4CCN(C(=O)CN5CC(F)(F)C5)CC4)cc3c2C(C)C)cc(C)n1 [Example 340, 2-(3,3-difluoroazetidin-1-yl)-1-(4-(2-(2,6-dimethylpyridin-4-yl)-3-isopropyl-1H-indol-5-yl)piperidin-1-yl)ethan-1-one] |  |  |  | 0.0147 | 0.104 | 36 |  | 
4 | Cc1cnccc1-c1[nH]c2ccc(C3CCNCC3)cc2c1C(C)C [Example 23, 3-isopropyl-2-(3-methylpyridin-4-yl)-5-(piperidin-4-yl)-1H-indole] |  |  |  | 0.097 | 0.0323 | 8.79 |  | 
5 | Cc1cc(-c2[nH]c3ccc(C4CCN(C(=O)C5(O)CC5)CC4)cc3c2C(C)C)cc(C)n1 [Example 107, (4-(2-(2,6-dimethylpyridin-4-yl)-3-isopropyl-1H-indol-5-yl)piperidin-1-yl)(1-hydroxycyclopropyl)methanone] |  |  |  | 0.0146 | 0.0284 | 13.4 |  | 
6 | CC(C)c1c(-c2ccnc(N)c2)[nH]c2ccc(C3CCNCC3)cc12 [Example 8, 4-(3-isopropyl-5-(piperidin-4-yl)-1H-indol-2-yl)pyridin-2-amine] |  |  |  | 0.0344 | 0.0288 | 0.16 |  | 
7 | Cc1cc(-c2[nH]c3ccc(C4CCN(C(=O)CCN(C)CCO)CC4)cc3c2C(C)C)cc(C)n1 [Example 175, 1-(4-(2-(2,6-dimethylpyridin-4-yl)-3-isopropyl-1H-indol-5-yl)piperidin-1-yl)-3-((2-hydroxyethyl)(methyl)amino)propan-1-one] |  |  |  | 0.0015 | 0.0071 | 0.213 |  | 
8 | CNCCN1CCC(c2ccc3[nH]c(-c4cc(OC)ncc4F)c(C)c3c2)CC1 [Example 756, 2-(4-(2-(5-fluoro-2-methoxypyridin-4-yl)-3-methyl-1H-indol-5-yl)piperidin-1-yl)-N-methylethan-1-amine] |  |  |  | 3.12 | 0.185 | 3.3 |  | 
9 | CCCN1CCC(c2ccc3[nH]c(-c4cc(C)nc(C)c4)c(C(C)C)c3c2)CC1 [Example 323, 2-(2,6-dimethylpyridin-4-yl)-3-isopropyl-5-(1-propylpiperidin-4-yl)-1H-indole] |  |  |  | 0.0014 | 0.0039 | 0.359 |  | 
10 | Cc1cc(-c2[nH]c3ccc(C4CCN(C(=O)CN(C)CCF)CC4)cc3c2C(C)C)cc(C)n1 [Example 421, 1-(4-(2-(2,6-dimethylpyridin-4-yl)-3-isopropyl-1H-indol-5-yl)piperidin-1-yl)-2-((2-fluoroethyl)(methyl)amino)ethan-1-one] |  |  |  | 0.0054 | 0.0259 | 0.656 |  | 
11 | CCc1c(-c2ccnc(N)c2)[nH]c2ccc([C@@H]3CCNC[C@@H]3F)cc12 [491-A] |  |  |  | 0.156 | 0.11 | 0.354 |  | 
12 | CCc1c(-c2ccnc(C)c2)[nH]c2ccc(C3CCN(C(=O)NC4CCN(C(=O)C(F)(F)F)CC4)CC3)cc12 [Example 846, 4-(3-ethyl-2-(2-methylpyridin-4-yl)-1H-indol-5-yl)-N-(1-(2,2,2-trifluoroacetyl)piperidin-4-yl)piperidine-1-carboxamide] | 1.59 | 1.54 | > 50 |  |  |  |  | 
13 | Cc1cc(-c2[nH]c3ccc(C4CCN(CCC(F)(F)F)CC4)cc3c2C(C)C)ccn1 [Example 676, 3-isopropyl-2-(2-methylpyridin-4-yl)-5-(1-(3,3,3-trifluoropropyl)piperidin-4-yl)-1H-indole] |  |  |  | 0.019 | 0.0123 | 1.93 |  | 
14 | CCCN(CCO)C(=O)CN1CCC(c2ccc3[nH]c(-c4cc(C)nc(C)c4)c(C(C)C)c3c2)CC1 [Example 295, 2-(4-(2-(2,6-dimethylpyridin-4-yl)-3-isopropyl-1H-indol-5-yl)piperidin-1-yl)-N-(2-hydroxyethyl)-N-propylacetamide] |  |  |  | 0.03 | 0.142 | 3.17 |  | 
15 | Cc1cc(-c2[nH]c3ccc(C4CCN(Cc5c[nH]cn5)CC4)cc3c2C(C)C)cc(C)n1 [Example 425, 5-(1-((1H-imidazol-4-yl)methyl)piperidin-4-yl)-2-(2,6-dimethylpyridin-4-yl)-3-isopropyl-1H-indole] |  |  |  | 0.0037 | 0.0025 | 0.143 |  | 
16 | Cc1cc(-c2[nH]c3ccc(C4CCN(C(=O)C5CNC(=O)C5)CC4)cc3c2C(C)C)ccn1 (stereo not drawn) [Example 612, 4-(4-(3-isopropyl-2-(2-methylpyridin-4-yl)-1H-indol-5-yl)piperidine-1-carbonyl)pyrrolidin-2-one] |  |  |  | 0.073 | 0.162 | 16.7 |  | 
17 | Cc1cc(-c2[nH]c3ccc(C4CCN(C(=O)CC5CCOCC5)CC4)cc3c2C(C)C)cc(C)n1 [Example 106, 1-(4-(2-(2,6-dimethylpyridin-4-yl)-3-isopropyl-1H-indol-5-yl)piperidin-1-yl)-2-(tetrahydro-2H-pyran-4-yl)ethan-1-one] |  |  |  | 0.0082 | 0.0674 | 30.6 |  | 
18 | Cc1cc(-c2[nH]c3ccc(C4CCN(CC(=O)N[C@H](C)C(F)(F)F)CC4)cc3c2C(C)C)cc(C)n1 [Example 252, (R)-2-(4-(2-(2,6-dimethylpyridin-4-yl)-3-isopropyl-1H-indol-5-yl)piperidin-1-yl)-N-(1,1,1-trifluoropropan-2-yl)acetamide] |  |  |  | 0.0083 | 0.0244 | 1.81 |  | 
19 | Cc1cc(-c2[nH]c3ccc(C4CCN(CC(=O)N5CCCCC5C)CC4)cc3c2C(C)C)cc(C)n1 (stereo not drawn) [Example 270, 2-(4-(2-(2,6-dimethylpyridin-4-yl)-3-isopropyl-1H-indol-5-yl)piperidin-1-yl)-1-(2-methylpiperidin-1-yl)ethan-1-one] |  |  |  | 0.0064 | 0.0155 | 0.192 |  | 
20 | Cc1cc(-c2[nH]c3ccc(C4CCN(CC(=O)N(C)CCCO)CC4)cc3c2C(C)C)cc(C)n1 [Example 288, 2-(4-(2-(2,6-dimethylpyridin-4-yl)-3-isopropyl-1H-indol-5-yl)piperidin-1-yl)-N-(3-hydroxypropyl)-N-methylacetamide] |  |  |  | 0.01 | 0.0346 | 1.47 |  | 
21 | Cc1cc(-c2[nH]c3ccc(C4CCN(C(=O)CNCC(C)O)CC4)cc3c2C(C)C)cc(C)n1 (stereo not drawn) [Example 367, 1-(4-(2-(2,6-dimethylpyridin-4-yl)-3-isopropyl-1H-indol-5-yl)piperidin-1-yl)-2-((2-hydroxypropyl)amino)ethan-1-one] |  |  |  | 0.0065 |  |  | 0.0541 | 1.89
22 | Cc1cc(-c2[nH]c3ccc(C4CCN(C(=O)CN(C)C)CC4)cc3c2C(C)C)c(F)c(C)n1 [Example 588, 2-(dimethylamino)-1-(4-(2-(3-fluoro-2,6-dimethylpyridin-4-yl)-3-isopropyl-1H-indol-5-yl)piperidin-1-yl)ethan-1-one] |  |  |  | 0.0005 | 0.0013 | 0.845 |  | 
